The record followed here is ChEMBL document CHEMBL1145489, “Isoniazid induces its own resistance in nonreplicating Mycobacterium tuberculosis” (Antimicrob Agents Chemother, 2007).

Common to all, as to assay type: functional
Experiment [1] relates to Mycobacterium tuberculosis. In words: Antimicrobial activity against Mycobacterium tuberculosis H37Rv subculture 5 with wild type katG mutation in absence of catalase activity.
Experiment [2] relates to Mycobacterium tuberculosis. In words: Antimicrobial activity against Mycobacterium tuberculosis H37Rv subculture 1 with wild type katG mutation.
Experiment [3] has as its system Mycobacterium tuberculosis. As to the kind of experiment: Antimicrobial activity against Mycobacterium tuberculosis H37Rv subculture 6 with katG W328R mutant.
The subject of experiment [4] is Mycobacterium tuberculosis. As to the kind of experiment: Antimicrobial activity against Mycobacterium tuberculosis H37Rv subculture 3 with katG D329H mutant.
In experiment [5] the test system is Mycobacterium tuberculosis. In words: Antimicrobial activity against Mycobacterium tuberculosis H37Rv subculture 4 with wild type katG mutation in presence of catalase activity.

Values after ≈ are worked out from the molar mass of the structure shown.

Turning to `NNC(=O)c1ccncc1` [ISONIAZID], the MIC in experiment [1] is 0.4 µg/mL (≈ 2.92 µM); in experiment [2], 0.4 µg/mL (≈ 2.92 µM); in experiment [3], over 2 µg/mL; in experiment [4], over 2 µg/mL; in experiment [5], over 2 µg/mL.
